# Measured values reported in patent US20040265877A1, “Methods for detecting presence of cellular constituents” (Marantech Holding, LLC, priority 2003, published 2004).
# Columns and labels:
# HeLa cells = experiment: Binding/staining of HeLa cervical carcinoma cells; type: cell-based, human
# Experimental: (§1) This example is directed to a reagent kit to determine the presence of cancer cells in cervical specimens (i.e., Pap (Papanicolaou test) smears).
# Next, HeLa cells were mixed with epithelial (cheek) cells to create a simulated Pap smear.
# (§2) TST solution (soluble TST) was prepared by adding 5 mg of TST to 1 ml of dd H2O. Inadvertent “grounding” of the TST was avoided. The solution was mixed gently and thoroughly by pipetting up and down. Formation of air bubbles and excessive agitation were avoided. The solution was centrifuged for 15 seconds at 1,000 rpm to settle excess TST. Soluble TST was added to a sample slide (picking up and depositing undissolved TST was avoided). The slide was incubated at room temperature for 10 minutes, followed by rinsing by either dipping the slide five times in a beaker of distilled water, or using the dual pipette method to remove excess TST. Dual pipette method: Using two pipettes, water was slowly added to the slide at one corner while the solution was simultaneously drawn up into the other pipette from a distal corner of the sample. Without intending to be bound by theory, the idea was to create somewhat of a flow across the sample, to gently wash it. The sample was quickly and gently blotted once or twice with a cloth wipe.
# The enhancement solution was then prepared. One drop each of the 2-part enhancer was added to a microfuge tube. The mixture was vortexed for 40 seconds, and then immediately added it to the sample (an optional very brief centrifuge step at low speed in order to settle the liquid at the bottom of the tube was performed prior to addition to the sample). The sample was incubated at room temperature for 20-30 minutes. Optionally, the progress of the reaction under was observed using a light microscope. The slide was rinsed by either dipping the slide 5 times into a beaker of distilled water, or by the dual pipette method described above. The sample was quickly and gently blotted once or twice with a cloth wipe, and the sample was allowed to dry. The results were observed either under a light microscope or with the naked eye.
# CNOX [1] = details: soybean seed plasma protein; elevated concentrations far above 1 PPM
# Experimental: (§3) NADH oxidase (NOX) activity was determined (as the disappearance of it measured spectrophotometrically at 340 nm) in a reaction mixture (25 mM Tris-MES buffer at pH 7.2, KCN 1 mM) to inhibit low levels of mitochondrial oxidase activity, and 150 micromoles […] at 37° C. with stirring. Activity was measured with pairs of Hitachi U3210 Spectrophotometers. Assays were initiated by the addition of NOX and tetrasilver tetroxide (Ag4O4) for one minute and were repeated on the same sample every 1.5 minutes over a 45-minute period. A mM absorption coefficient of 6.2 was used to determine specific activity.
# (§4) Protein disulfide-thiol interchange activity associated with tNOX was measured using the dipyridyldithio substrate dithiodipyridine (DTDP). The assay was performed in 50 mM Tris-MES buffer (pH 7.0) and was initiated by the addition of 0.5 micromoles DTDP in 5 microliters DMSO as a control. The reaction was monitored by tracking an increase in absorption at 340 nm using DTDP, specific activity being calculated using a mM absorption coefficient of 6.2. The spectrophotometric assays were performed simultaneously with the two spectrophotometers and DMSO controls.
# (§5) The procedure was repeated with plasma protein derived from soybean seeds containing CNOX growth regulator.
# CNOX [2] = molecular target: CNOX (Homo sapiens, UniProt Q8TC92); details: MCF-10A human mammary epithelia; elevated concentrations far above 1 PPM
# Experimental: as §3, §4, §5
# [3] = system: liver cells expressing tNOX; details: after computer photography enhancement, 40x
# Experimental: (§6) Frozen liver slices were obtained, and the two step process described below for non-aqueous testing was performed. The results were viewed with a microscope and computer enhanced. Frozen liver slices from a wild type mouse (non-cancerous) were compared with frozen liver slices from a transgenic mouse expressing tNOX on its liver cells.
# (§7) TST solution was prepared by adding 5 mg of TST to 1 ml of dd H2O. Inadvertent “grounding” of the TST was avoided. The solution was mixed gently and thoroughly by pipetting up and down. Air bubbles and excessive agitation were avoided. The solution was centrifuged for 15 seconds at 1,000 rpm to settle excess TST.
# (§8) Soluble TST was added to a sample section, while avoiding undissolved TST. The sample was incubated at room temperature for 10 minutes. Excess TST was removed by dipping the section several times in a beaker of distilled water. The sample was quickly and gently blotted once or twice with a cloth wipe.
# (§9) The enhancement solution was prepared by placing one drop each of the two-part enhancer into a microfuge tube. The mixture was vortexed for 40 seconds, and immediately added to the sample. The solution was optionally centrifuged briefly at low speed in order to settle the liquid at the bottom of the tube prior to addition to the sample. The sample was incubated at room temperature for 20-30 minutes.
# wild type mouse liver = details: after computer photography enhancement, 40x
# Experimental: as §6, §7, §8, §9
# toenail fungus = details: single case, 25% suspension of the composition, topical; cited from earlier work
# tNOX [4] = details: HeLa cells; concentration of one part per million (PPM)
# Experimental: as §3, §4
# tNOX [5] = molecular target: tNOX (Homo sapiens, UniProt Q16206); details: BT-20 mammary cancer cell line
# Experimental: as §3, §4
# athlete's foot = details: single case, solution of 100 ppm of the composition, topical; cited from earlier work
# normal cells = system: normal cells
# Experimental: as §1, §2
# The enhancement solution was then prepared. One drop each of the 2-part enhancer was added to a microfuge tube. […]
# tumor cells (HeLa) = details: FIG. 7
# Source text: (§10) A non-spectrophotometric characterization technique, i.e., scanning electron microscopy (SEM) was used with the procedure set forth in Example VIII.
# [6] = system: non-tumor cells (MCF-10A); details: FIGS. 10A-10B
# Source text: as §10
# [7] = single intravenous injection at about 40 ppm of human blood; no reported loss of liver function; cited from earlier work
# [8] = system: gynecological yeast infection; details: 10 ppm silver tetroxide and 40 ppm sodium persulfate; cited from earlier work
# [9] = system: Herpes virus infected cells; details: Pap smear samples, FIG. 4
# Experimental: as §2
# The enhancement solution was then prepared. One drop each of the 2-part enhancer was added to a microfuge tube. The mixture was vortexed for 40 seconds, and then immediately added it to the sample (an optional very brief centrifuge step at low speed in order to settle the liquid at the bottom of the tube was performed prior to addition to the sample). […]
# Sequence of tNOX (Homo sapiens, UniProt Q16206) (Q16206 whole entry): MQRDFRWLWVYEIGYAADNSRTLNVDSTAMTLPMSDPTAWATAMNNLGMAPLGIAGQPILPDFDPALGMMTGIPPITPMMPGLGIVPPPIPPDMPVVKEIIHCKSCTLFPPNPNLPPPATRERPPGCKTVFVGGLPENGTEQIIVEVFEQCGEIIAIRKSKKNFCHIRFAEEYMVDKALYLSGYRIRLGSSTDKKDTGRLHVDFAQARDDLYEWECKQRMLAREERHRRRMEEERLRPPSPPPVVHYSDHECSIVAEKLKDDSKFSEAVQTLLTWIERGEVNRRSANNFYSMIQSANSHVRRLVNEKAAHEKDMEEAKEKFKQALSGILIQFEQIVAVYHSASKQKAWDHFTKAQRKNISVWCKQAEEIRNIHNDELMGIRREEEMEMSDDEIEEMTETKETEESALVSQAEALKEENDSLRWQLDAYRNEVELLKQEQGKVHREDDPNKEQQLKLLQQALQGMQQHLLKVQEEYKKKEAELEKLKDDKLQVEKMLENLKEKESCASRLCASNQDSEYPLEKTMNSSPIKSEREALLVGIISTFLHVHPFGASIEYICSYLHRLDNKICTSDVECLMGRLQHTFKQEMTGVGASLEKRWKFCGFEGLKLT
# Sequence of CNOX (Homo sapiens, UniProt Q8TC92) (Q8TC92 whole entry): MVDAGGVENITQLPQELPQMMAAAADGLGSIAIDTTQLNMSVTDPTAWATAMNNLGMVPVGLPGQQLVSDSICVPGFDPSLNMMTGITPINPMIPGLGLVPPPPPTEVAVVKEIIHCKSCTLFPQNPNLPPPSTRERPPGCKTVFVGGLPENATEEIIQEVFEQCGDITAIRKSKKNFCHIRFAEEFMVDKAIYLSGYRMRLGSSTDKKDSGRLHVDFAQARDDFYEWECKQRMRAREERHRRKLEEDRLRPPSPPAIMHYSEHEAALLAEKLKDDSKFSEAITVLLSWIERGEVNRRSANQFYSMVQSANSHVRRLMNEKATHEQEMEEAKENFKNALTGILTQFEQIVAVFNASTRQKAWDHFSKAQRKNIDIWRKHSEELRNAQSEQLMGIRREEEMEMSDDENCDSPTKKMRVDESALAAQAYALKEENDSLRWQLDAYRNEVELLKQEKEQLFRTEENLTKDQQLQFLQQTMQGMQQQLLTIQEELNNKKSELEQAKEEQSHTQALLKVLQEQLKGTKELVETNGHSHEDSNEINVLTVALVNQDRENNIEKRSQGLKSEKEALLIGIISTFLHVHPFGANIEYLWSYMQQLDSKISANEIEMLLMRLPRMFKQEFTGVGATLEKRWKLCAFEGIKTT
structure (smiles),measurement,setting,value
"[O]=[Fe].[O]=[Fe][O][Fe]=[O] [Fe3O4, triiron tetroxide]",staining of HeLa cells,"HeLa cells; Fe3O4, FIGS. 9A-9C",selectively stained
[Ag+].[Ag+].[Ag+].[Ag+].[O-2].[O-2].[O-2].[O-2] [tetrasilver tetroxide],effect on CNOX,CNOX [1],not affected at all
same,effect on CNOX,CNOX [2],not affected at all
same,staining of liver slices,[3],black nuclei and black borders
same,staining of liver slices,wild type mouse liver,did not
same,outcome of infection,toenail fungus,cure
same,tNOX activity inhibition,tNOX [4],inhibited completely
same,tNOX activity inhibition,tNOX [5],the same as in Example VIfI
same,outcome of infection,athlete's foot,cure
same,binding to normal cells,normal cells,without binding
same,nuclear staining,"normal cells; Pap smear samples, FIG. 4",no nuclear staining
same,binding by SEM,tumor cells (HeLa),actual binding
same,binding by SEM,[6],non-binding
same,liver adverse effect,[7],hepatomegaly
same,outcome of infection,[8],curing
same,binding to HeLa cultured cervical cell lines,HeLa cells,bound covalently
same,nuclear staining,"HeLa cells; Pap smear samples, FIG. 4",black staining of nuclei
same,distinguishing HeLa cells from epithelial (cheek) cells,"HeLa cells; simulated Pap smear, HeLa mixed with cheek cells",selective binding with and darkening of the cytoplasmic membrane of the HeLa cells
same,staining of infected cells,[9],brown staining
